{"source": "paper PMC4188605", "about": "“Biochemical and Pharmacological Characterization of the Human Lymphocyte Antigen B-Associated Transcript 5 (BAT5/ABHD16A)” (PLoS ONE, 2014)", "key": {"hABHD6": {"biological_target": "T1, hABHD6 (Homo sapiens, UniProt Q9BV23)", "T1 construct": "expressed in transfected cells; host or cells: HEK293", "T1 sequence (Q9BV23 1-337)": "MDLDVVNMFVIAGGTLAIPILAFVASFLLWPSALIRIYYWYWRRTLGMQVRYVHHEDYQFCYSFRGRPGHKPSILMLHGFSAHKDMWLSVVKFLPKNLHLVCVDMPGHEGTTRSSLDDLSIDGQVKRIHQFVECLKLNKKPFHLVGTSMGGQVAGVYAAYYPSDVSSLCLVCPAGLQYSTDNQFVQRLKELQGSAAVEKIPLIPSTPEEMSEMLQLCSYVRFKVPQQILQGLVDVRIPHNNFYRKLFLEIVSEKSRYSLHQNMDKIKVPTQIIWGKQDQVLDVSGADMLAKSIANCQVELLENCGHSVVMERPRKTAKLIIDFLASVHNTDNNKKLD", "test": "Hydrolase activity assay, hABHD6-HEK lysates", "type": "biochemical", "conditions": "hABHD6-HEK lysates; read-out: IC50"}, "hMAGL": {"biological_target": "T2, hMAGL (Homo sapiens, UniProt Q99685)", "T2 construct": "expressed in transfected cells; host or cells: HEK", "T2 sequence (Q99685 1-303)": "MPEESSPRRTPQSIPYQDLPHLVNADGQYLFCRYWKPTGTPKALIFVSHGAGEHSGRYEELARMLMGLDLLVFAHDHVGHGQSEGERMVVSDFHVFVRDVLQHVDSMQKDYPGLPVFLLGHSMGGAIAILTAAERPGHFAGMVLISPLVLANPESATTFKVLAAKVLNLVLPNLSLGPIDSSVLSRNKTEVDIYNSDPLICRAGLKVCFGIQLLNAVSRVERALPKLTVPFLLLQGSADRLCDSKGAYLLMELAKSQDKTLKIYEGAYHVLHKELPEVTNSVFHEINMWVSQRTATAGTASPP", "test": "Hydrolase activity assay, hMAGL-HEK lysates", "type": "biochemical", "conditions": "hMAGL-HEK lysates"}, "BAT5": {"biological_target": "T3, BAT5 (Mus musculus, UniProt Q9Z1Q2)", "T3 sequence (Q9Z1Q2 1-558)": "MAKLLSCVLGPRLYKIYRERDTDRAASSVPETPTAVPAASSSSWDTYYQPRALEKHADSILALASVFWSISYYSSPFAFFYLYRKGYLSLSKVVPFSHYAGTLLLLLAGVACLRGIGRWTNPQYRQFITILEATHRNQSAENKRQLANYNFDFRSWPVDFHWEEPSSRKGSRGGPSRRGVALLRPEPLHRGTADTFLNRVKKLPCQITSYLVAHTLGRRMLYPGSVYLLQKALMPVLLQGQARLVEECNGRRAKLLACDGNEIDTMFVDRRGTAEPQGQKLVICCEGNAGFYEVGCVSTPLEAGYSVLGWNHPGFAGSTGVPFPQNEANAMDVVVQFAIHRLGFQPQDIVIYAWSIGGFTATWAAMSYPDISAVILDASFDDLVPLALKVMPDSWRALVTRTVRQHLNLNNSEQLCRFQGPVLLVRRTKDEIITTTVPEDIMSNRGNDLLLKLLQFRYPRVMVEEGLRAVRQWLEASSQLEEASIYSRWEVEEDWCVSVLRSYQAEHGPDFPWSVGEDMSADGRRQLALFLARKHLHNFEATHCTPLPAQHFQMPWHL", "test": "Competitive ABPP, mouse brain membrane proteome: BAT5 band", "conditions": "tested concentration range 10^−8–10^−5 M"}, "ABHD6": {"biological_target": "T4, ABHD6 (Mus musculus, UniProt Q8R2Y0)", "T4 sequence (Q8R2Y0 1-336)": "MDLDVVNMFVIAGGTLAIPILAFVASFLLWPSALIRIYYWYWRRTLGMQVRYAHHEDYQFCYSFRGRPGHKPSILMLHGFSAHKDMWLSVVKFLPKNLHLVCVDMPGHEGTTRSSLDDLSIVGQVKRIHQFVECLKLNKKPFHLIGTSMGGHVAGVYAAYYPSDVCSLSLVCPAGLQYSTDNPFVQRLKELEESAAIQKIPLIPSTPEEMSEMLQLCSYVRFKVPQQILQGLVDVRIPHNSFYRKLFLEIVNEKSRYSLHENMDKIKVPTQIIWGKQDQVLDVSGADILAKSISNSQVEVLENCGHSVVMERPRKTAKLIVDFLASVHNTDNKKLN", "test": "Competitive ABPP, mouse brain membrane proteome: ABHD6 band", "conditions": "at the highest concentration (10^−5 M)"}, "ABHD12": {"biological_target": "T5, ABHD12 (Mus musculus, UniProt Q99LR1)", "T5 sequence (Q99LR1 1-398)": "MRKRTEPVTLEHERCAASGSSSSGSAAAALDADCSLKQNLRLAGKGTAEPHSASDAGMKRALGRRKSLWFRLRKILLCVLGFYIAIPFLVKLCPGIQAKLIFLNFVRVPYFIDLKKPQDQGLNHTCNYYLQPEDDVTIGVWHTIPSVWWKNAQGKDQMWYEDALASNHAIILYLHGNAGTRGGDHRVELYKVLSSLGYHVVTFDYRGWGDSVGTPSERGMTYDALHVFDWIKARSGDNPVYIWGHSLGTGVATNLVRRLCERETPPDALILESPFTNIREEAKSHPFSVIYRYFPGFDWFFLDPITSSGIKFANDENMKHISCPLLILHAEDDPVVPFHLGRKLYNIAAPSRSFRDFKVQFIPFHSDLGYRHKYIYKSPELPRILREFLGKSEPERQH", "test": "Competitive ABPP, mouse brain membrane proteome: ABHD12 band", "conditions": "tested concentration range 10^−8–10^−5 M"}, "MAGL": {"biological_target": "T6, MAGL (Mus musculus, UniProt O35678)", "T6 sequence (O35678 1-303)": "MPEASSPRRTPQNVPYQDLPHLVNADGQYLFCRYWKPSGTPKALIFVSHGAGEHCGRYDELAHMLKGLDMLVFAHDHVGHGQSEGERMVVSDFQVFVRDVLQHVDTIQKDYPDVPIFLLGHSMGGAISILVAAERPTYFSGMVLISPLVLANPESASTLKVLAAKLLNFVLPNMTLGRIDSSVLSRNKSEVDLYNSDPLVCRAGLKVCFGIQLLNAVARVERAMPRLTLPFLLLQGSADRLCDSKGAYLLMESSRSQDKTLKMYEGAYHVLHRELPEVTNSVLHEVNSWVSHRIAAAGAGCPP", "test": "Competitive ABPP, mouse brain membrane proteome: MAGL doublet", "conditions": "at the highest concentration (10^−5 M)"}, "LYPLA1/2": {"test_system": "LYPLA1/2", "test": "Competitive ABPP, mouse brain membrane proteome: LYPLA1/2 band", "conditions": "tested concentration range 10^−8–10^−5 M"}}, "note": "Entries after “also recorded” stand apart in the source; their conditions may differ."}
{"smiles": "CCCCCCCCCC[C@@H]1C(=O)O[C@H]1CCc1ccc(OC)c(OC)c1", "note": "[Palmostatin B, palmostatin B]", "values": [{"measurement": "IC50", "setting": "hABHD6", "result": 52.5, "unit": "nM"}, {"measurement": "IC50", "setting": "hMAGL", "result": 93.3, "unit": "nM"}, {"measurement": "inhibition of probe binding to BAT5", "setting": "BAT5", "result": "dose-dependently inhibited probe binding; also recorded: dose-dependently inhibits probe labeling"}, {"measurement": "inhibition of probe binding to ABHD6", "setting": "ABHD6", "result": "inhibited probe binding; also recorded: also inhibited"}, {"measurement": "inhibition of probe binding to ABHD12", "setting": "ABHD12", "result": "dose-dependently inhibited probe binding; also recorded: dose-dependently inhibits probe labeling"}, {"measurement": "inhibition of probe binding to MAGL", "setting": "MAGL", "result": "inhibited probe binding; also recorded: also inhibited"}, {"measurement": "inhibition of probe binding to LYPLA1/2", "setting": "LYPLA1/2", "result": "dose-dependently inhibited probe binding; also recorded: dose-dependently inhibits probe labeling"}]}
